Measurements from paper PMC10975012, “The Active Glucuronide Metabolite of the Brain Protectant IMM-H004 with Poor Blood–Brain Barrier Permeability Demonstrates a High Partition in the Rat Brain via Multiple Mechanisms” (Pharmaceutics, 2024).
Read-outs that look alike come from different tables or passages of the source.

Test system: P-gp
Experiment: Bidirectional transport in MDCKⅡ-MDR1 cell monolayers
Type: in vitro ADME
Conditions: dog
Protocol: To further validate the effect of P-gp on the transport of IMM-H004G or IMM-H004, MDCKⅡ-MDR1 cells were seeded onto polycarbonate membrane transwell inserts in 24-well plates and used for transport studies after 5 days or when the effective transepithelial electric resistance (TEER) values exceeded 300 Ω·cm^2. The monolayers were initially rinsed twice with HBSS. Subsequently, IMM-H004G or IMM-H004 (10 µmol/L) was added to either the apical or basolateral side of the monolayer. Aliquots of 50 µL were collected from the opposite compartment at various time points, covering a maximum duration of 120 min. Digoxin (5 μmol/L) was used as a positive substrate, while PSC833 (5 µmol/L) was used as an inhibitor in MDCKⅡ-MDR1 cells. The apparent permeability value (Papp) was calculated using the following equation:(2) Papp=dQ/dt/AC0 where dQ/dt is the slope of the cumulative transport amount over time during the study period. A is the base area of the insert, and C0 is the initial addition concentration.
The efflux ratio (ER) was calculated as follows:ER = Papp(B−A)/Papp(A−B) (3)

Q: What does the source list for `C[C@H]1O[C@@H](O[C@H]2[C@@H](O)C[C@H](O[C@H]3[C@@H](O)C[C@H](O[C@H]4CC[C@@]5(C)[C@H](CC[C@@H]6[C@@H]5C[C@@H](O)[C@]5(C)[C@@H](C7=CC(=O)OC7)CC[C@]65O)C4)O[C@@H]3C)O[C@@H]2C)C[C@H](O)[C@@H]1O` [digoxin, reference compound]?
A: efflux ratio at 120 min (MDCK-MDR1, with PSC833 5 µmol/L, MDCKⅡ-MDR1, PSC833 5 µmol/L, read-out: efflux ratio (ER) in the presence of PSC833): 1.41; efflux ratio at 120 min (MDCK-MDR1, MDCKⅡ-MDR1, no inhibitor, IMM-H004 10 µmol/L, digoxin 5 μmol/L, read-out: efflux ratio (ER)): 21.1
